Test results as given in patent publication US20230075856A1, “CYCLIC SULFAMIDE COMPOUNDS FOR TREATMENT OF HBV” (Assembly Biosciences, Inc., priority 2018, published 2023).

tested on: HBV viral load production from HepAD38 cells; assay: Viral production from HepAD38 cells: viral load in supernatant by qPCR of the HBV core sequence; assay type: cell-based; settings: 5 days incubation, qPCR of supernatant HBV DNA vs DMSO control, read-out: viral load lowering EC50 (Activity)
Description: Assay Measuring Activity of Test Compounds on Viral Production from HepAD38 Cells
HepAD38 cells grown in a T-150 flask (Corning, cat #: 430825) with Growth Medium (DMEM/F12 […] (Hyclone, cat #: SH30023.02), 1× Pen/Strep (Invitrogen, cat #: 15140-122), 10% FBS (Tissue Culture Biologics, cat #: 101), […] G418 (Alfa Aesar, cat #: J62671), 1 μg/mL Tetracycline (Teknova, cat #: T3320)) were detached with 0.25% trypsin-EDTA (Invitrogen, cat #: 25200-056). Tetracycline-free treatment medium (15 mL DMEM/F12 (1:1) 1× Pen/step, with 2% FBS, Tet-system approved (Clontech, cat #: 631106) were then added to mix, transferred into a 50 ml conical tube (Falcon, cat #: 21008-918,) and spun at 1300 rpm for 5 min. Pelleted cells were then re-suspended/washed with 50 mL of 1×DPBS (Invitrogen, cat #: 14190-136) 2 times and 50 mL treatment medium twice. HepAD38 cells were then re-suspended with 10 mL of treatment medium, syringed and counted. Wells of 96-well clear bottom TC plate (Corning, cat #: 3904,) were seeded at 50,000 cells/well in 180 μL of treatment medium, and 20 μL of either 10% DMSO (Sigma, cat #: D4540) as controls or a 10× solution of test compounds in 10% DMSO in treatment media was added for a final compound concentration starting at 10 μM, and plates were incubated in 5% CO2 incubator at 37° C. for 5 days.
Subsequently viral load production was assayed by quantitative PCR (qPCR) of the HBV core sequence. PCR reaction mixture containing forward primers HBV-f 5′-CTGTGCCTTGGGTGGCTIT-3′ (IDT DNA), Reverse primers HBV-r 5′-[…]-3′ (IDT DNA), Fluorescent TaqMan™ Probes HBV-probe 5′-FAM/AGCTCCAAA/ZEN/[…]/3IABkFQ-3′ (IDT DNA), 10 μL/well of PerfeCTa® qPCR ToughMix® (Quanta Biosciences, Cat #: 95114-05K), and 6 μL/well of DEPC water (Alfa Aesar, cat #: J62087) was prepared. Four μL of supernatant was added to 16 μL of the reaction mixture in a qPCR plate (Applied Biosytems, Cat #: 4309849), sealed with a film (Applied Biosystems, Cat #: 4311971), centrifuged for a few seconds, and subsequently run on an Applied Biosystems VIIA7. The PCR mixture was incubated at 45° C. for 5 min, then 95° C. for 10 min, followed by 40 cycles of 10 seconds at 95° C. and 20 seconds at 60° C. Viral load was quantified against known HBV DNA standards by using ViiA™ 7 Software. Viral load in the supernatant from wells with treated cells were compared against viral load in supernatant from DMSO control wells (≥3 per plate). Cell viability assay was performed with CellTiter-Glo Luminescent Cell Viability Assay (Promega, cat #: G7573) with modification. Mixed appropriate amount of CellTiter-Glo (CTG) 1×DPBS in a 1:1 ratio, added 100 uL of the mixture to each well followed completely removal of all supernatant in each well without touching cell surface. Incubated the plate at room temperature for 10 min on an orbital shaker, and then read the plate with a plate reader (TECAN M1000 or Envision). EC50 or CC50 values were calculated through curve-fitting of the four-parameter nonlinear-logistic-regression model (GraphPad Prism or Dotmatics). CC50 values were all >10 μM.

SMILES	EC50 [µM]
CN1C(C(=O)Nc2ccc(F)c(Cl)c2)CC(C(=O)NCc2nn(-c3ccccc3)c3ccccc23)NS1(=O)=O (single isomer, unassigned) [1072-ISOMER-B, N3-(3-chloro-4-fluoro-phenyl)-2-methyl-1,1-dioxo-N5-[(1-phenylindazol-3-yl)methyl]-1,2,6-thiadiazinane-3,5-dicarboxamide]	0.1 to 10
CN1C(C(=O)Nc2ccc(F)c(Cl)c2)CC(C(=O)NCc2sc(-c3ccccc3F)nc2C(F)(F)F)NS1(=O)=O (single isomer, unassigned) [1082-ISOMER-B, N3-(3-chloro-4-fluoro-phenyl)-N5-[[2-(2-fluorophenyl)-4-(trifluoromethyl)thiazol-5-yl]methyl]-2-methyl-1,1-dioxo-1,2,6-thiadiazinane-3,5-dicarboxamide]	0.05 to 0.1
CN1C(C(=O)Nc2ccc(F)c(Cl)c2)CC(C(=O)NCc2nn(-c3ccccc3F)c3ccccc23)NS1(=O)=O (single isomer, unassigned) [1086-ISOMER-B, N3-(3-chloro-4-fluoro-phenyl)-N5-[[1-(2-fluorophenyl)indazol-3-yl]methyl]-2-methyl-1,1-dioxo-1,2,6-thiadiazinane-3,5-dicarboxamide]	0.1 to 10
Cc1nc(-c2ccc(OCCN3CCCCC3)cc2)sc1CNC(=O)C1CC(C(=O)Nc2ccc(F)c(Cl)c2)N(C)S(=O)(=O)N1 (single isomer, unassigned) [1087-ISOMER-B, N3-(3-chloro-4-fluoro-phenyl)-2-methyl-N5-[[4-methyl-2-[4-[2-(1-piperidyl)ethoxy]phenyl]thiazol-5-yl]methyl]-1,1-dioxo-1,2,6-thiadiazinane-3,5-dicarboxamide]	0.05 to 0.1
CN1C(C(=O)Nc2ccc(F)c(Cl)c2)CC(C(=O)NCc2cnc(N)s2)NS1(=O)=O (single isomer, unassigned) [1132-ISOMER-B, N5-[(2-aminothiazol-5-yl)methyl]-N3-(3-chloro-4-fluoro-phenyl)-2-methyl-1,1-dioxo-1,2,6-thiadiazinane-3,5-dicarboxamide]	0.1 to 10

same assay, conditions: Hepatitis B virus, HePAD38, 120 h, 5 days incubation, qPCR of supernatant HBV DNA vs DMSO control, read-out: viral load lowering EC50 (Activity)

SMILES	EC50 [µM]
CN1C(C(=O)Nc2ccc(F)c(Cl)c2)CC(C(=O)NC(c2ccccc2)c2cnc(-c3ccccc3Cl)s2)NS1(=O)=O (single isomer, unassigned) [1068-ISOMER-A, N3-(3-chloro-4-fluoro-phenyl)-N5-[[2-(2-chlorophenyl)thiazol-5-yl]-phenyl-methyl]-2-methyl-1,1-dioxo-1,2,6-thiadiazinane-3,5-dicarboxamide]	< 0.05
CN1C(C(=O)Nc2ccc(F)c(Cl)c2)CC(C(=O)N[C@@H](c2ccccc2)c2cnc(-c3ccccc3Cl)s2)NS1(=O)=O (single isomer, unassigned) [1068-ISOMER-B]	0.05 to 0.1
CN1C(C(=O)Nc2ccc(F)c(Cl)c2)C[C@@H](C(=O)N[C@H](c2ccccc2)c2cnc(-c3ccccc3Cl)s2)NS1(=O)=O (single isomer, unassigned) [1068-ISOMER-C]	< 0.05
CN1C(C(=O)Nc2ccc(F)c(Cl)c2)CC(C(=O)N[C@@H](c2ccccc2)c2cnc(-c3ccc(Cl)cc3)s2)NS1(=O)=O (single isomer, unassigned) [1068-ISOMER-D]	0.1 to 10
CN1C(C(=O)Nc2ccc(F)c(Cl)c2)CC(C(=O)NCc2nn(-c3ccccc3)c3ccccc23)NS1(=O)=O (single isomer, unassigned) [1072-ISOMER-A, N3-(3-chloro-4-fluoro-phenyl)-2-methyl-1,1-dioxo-N5-[(1-phenylindazol-3-yl)methyl]-1,2,6-thiadiazinane-3,5-dicarboxamide]	< 0.05
CN1C(C(=O)Nc2ccc(F)c(Cl)c2)CC(C(=O)NCc2sc(-c3ccccc3F)nc2C(F)(F)F)NS1(=O)=O (single isomer, unassigned) [1082-ISOMER-A, N3-(3-chloro-4-fluoro-phenyl)-N5-[[2-(2-fluorophenyl)-4-(trifluoromethyl)thiazol-5-yl]methyl]-2-methyl-1,1-dioxo-1,2,6-thiadiazinane-3,5-dicarboxamide]	< 0.05
Cc1nc(-c2ccc(F)cc2F)sc1CNC(=O)C1CC(C(=O)Nc2ccc(F)c(Cl)c2)N(C)S(=O)(=O)N1 (single isomer, unassigned) [1083-ISOMER-A, N3-(3-chloro-4-fluoro-phenyl)-N5-[[2-(2,4-difluorophenyl)-4-methyl-thiazol-5-yl]methyl]-2-methyl-1,1-dioxo-1,2,6-thiadiazinane-3,5-dicarboxamide]	< 0.05
CN1C(C(=O)Nc2ccc(F)c(Cl)c2)CC(C(=O)NCc2nn(-c3ccccc3F)c3ccccc23)NS1(=O)=O (single isomer, unassigned) [1086-ISOMER-A, N3-(3-chloro-4-fluoro-phenyl)-N5-[[1-(2-fluorophenyl)indazol-3-yl]methyl]-2-methyl-1,1-dioxo-1,2,6-thiadiazinane-3,5-dicarboxamide]	< 0.05
Cc1nc(-c2ccc(OCCN3CCCCC3)cc2)sc1CNC(=O)C1CC(C(=O)Nc2ccc(F)c(Cl)c2)N(C)S(=O)(=O)N1 (single isomer, unassigned) [1087-ISOMER-A, N3-(3-chloro-4-fluoro-phenyl)-2-methyl-N5-[[4-methyl-2-[4-[2-(1-piperidyl)ethoxy]phenyl]thiazol-5-yl]methyl]-1,1-dioxo-1,2,6-thiadiazinane-3,5-dicarboxamide]	< 0.05
Cc1nc(-c2ccccc2Cl)sc1[C@H](NC(=O)C1CC(C(=O)Nc2ccc(F)c(Cl)c2)N(C)S(=O)(=O)N1)c1ccccc1 (single isomer, unassigned) [1100-ISOMER-A]	< 0.05
Cc1nc(-c2ccccc2Cl)sc1[C@@H](NC(=O)C1CC(C(=O)Nc2ccc(F)c(Cl)c2)N(C)S(=O)(=O)N1)c1ccccc1 (single isomer, unassigned) [1100-ISOMER-B]	0.1 to 10
Cc1nc(-c2ccccc2Cl)sc1[C@H](NC(=O)C1CC(C(=O)Nc2ccc(F)c(Cl)c2)N(C)S(=O)(=O)N1)c1ccccc1 (single isomer, unassigned) [1100-ISOMER-C]	0.1 to 10
Cc1nc(-c2ccccc2Cl)sc1[C@@H](NC(=O)C1CC(C(=O)Nc2ccc(F)c(Cl)c2)N(C)S(=O)(=O)N1)c1ccccc1 (single isomer, unassigned) [1100-ISOMER-D]	0.1 to 10
Cc1nc(-c2ccccc2F)sc1[C@H](NC(=O)C1CC(C(=O)Nc2ccc(F)c(Cl)c2)N(C)S(=O)(=O)N1)c1ccccc1 (single isomer, unassigned) [1101-ISOMER-A]	< 0.05
Cc1nc(-c2ccccc2F)sc1[C@@H](NC(=O)C1CC(C(=O)Nc2ccc(F)c(Cl)c2)N(C)S(=O)(=O)N1)c1ccccc1 (single isomer, unassigned) [1101-ISOMER-B]	0.1 to 10
Cc1nc(-c2ccccc2F)sc1[C@H](NC(=O)C1CC(C(=O)Nc2ccc(F)c(Cl)c2)N(C)S(=O)(=O)N1)c1ccccc1 (single isomer, unassigned) [1101-ISOMER-C]	0.1 to 10
CN1C(C(=O)Nc2ccc(F)c(Cl)c2)CC(C(=O)NCc2cnc(N)s2)NS1(=O)=O (single isomer, unassigned) [1132-ISOMER-A, N5-[(2-aminothiazol-5-yl)methyl]-N3-(3-chloro-4-fluoro-phenyl)-2-methyl-1,1-dioxo-1,2,6-thiadiazinane-3,5-dicarboxamide]	0.05 to 0.1
Cc1cn(-c2ccccc2)nc1CNC(=O)C1CC(C(=O)Nc2ccc(F)c(C#N)c2)N(C)S(=O)(=O)N1 (single isomer, unassigned) [1134-ISOMER-A, N3-(3-cyano-4-fluoro-phenyl)-2-methyl-N5-[(4-methyl-1-phenyl-pyrazol-3-yl)methyl]-1,1-dioxo-1,2,6-thiadiazinane-3,5-dicarboxamide]	0.1 to 10
